Results as given in article PMC9699003, “Arene Variation of Highly Cytotoxic Tridentate Naphthoquinone-Based Ruthenium(II) Complexes and In-Depth In Vitro Studies” (Pharmaceutics, 2022).
Read-outs that look alike come from different tables or passages of the source.

How the values were obtained:
pUC19 plasmid [1] = assay: DNA interaction assay (dsDNA plasmid, agarose gel electrophoresis); format: biochemical; conditions: 50 µM; for Influence on pUC19 (in words): up to 6 h; for open circular (oc) form of pUC19 (single-strand breaks): 37 °C, after 6 h of incubation, control after 6 h 3.6 ± 0.7%
Description: The incubation was performed at 37 °C for different time intervals (15 min to 6 h) with continuous shaking. Additionally, 4 µL aliquots of a 6× DNA loading dye (Thermo Fisher) were added to the 20 µL reaction solution, and the DNA samples were separated in a 1% agarose gel in 1 × Tris-Borate-EDTA (TBE) buffer. Electrophoresis was initiated at 60 V for 5 min and continued at 120 V for 90 min in 1 × TBE buffer. For visualization of the DNA modification degree, the agarose gel was stained with ethidium bromide (EtBr) in 1 × TBE (0.75 µg/mL) for 20 min.

[2] = HPLC-MS stability measurements in PBS; conditions: PBS pH 7.4, 20 °C, 40 µM
Description: 4 µL of stock solution was mixed with 990 µL of PBS buffer (pH 7.4) and 6 µL DMSO to obtain a final concentration of 40 µM. After injection, the chromatogram at 225 nm and the corresponding mass spectra (positive mode) were recorded hourly (4 h) and after 24 h at 20 °C. Peak areas were determined by integrating complex signals of the respective chromatogram. The measurements were performed with an HPLC system (Agilent Technologies, […]) equipped with a C18 column (Waters, Atlantis T3 […], 1.0 × 150 mm^2) coupled to an MS (Bruker, amaZon SL, ESI, positive mode) with a flow rate of 0.2 mL/min at 20 °C and a gradient (5–95%) with Milli-Q water/ACN.

[3] = tested on: A549 non-small cell lung cancer cells; assay: MTT assay (cytotoxicity); format: cell-based, human
Description: (§1) CH1/PA-1 ovarian teratocarcinoma cells (provided by L. R. Kelland, CRC Centre for Cancer Therapeutics, Institute of Cancer Research, Sutton, UK; confirmed by STR profiling as PA-1 ovarian teratocarcinoma cells at Multiplexion, Heidelberg, Germany), SW480 colon carcinoma and A549 non-small cell lung cancer cells (both obtained from the American Type Culture Collection, Manassas, VA, USA) were grown as adherent cultures in 75 cm² culture flasks (CytoOne, Starlab, Hamburg, Germany) by using minimal essential medium (MEM) supplemented with 1 mM sodium pyruvate, 4 mM L-glutamine, 1% (v/v) nonessential amino acids from 100-fold stock (all purchased from Sigma-Aldrich) and 10% heat-inactivated fetal bovine serum (BioWest, Nuaillé, France). Cells were maintained under standard culture conditions with 5% CO2 at 37 °C in a humidified atmosphere.
(§2) The 3-(4,5-dimethylthiazol-2-yl)-2,5-diphenyl-2H-tetrazolium bromide (MTT, Acros Organics, Geel, Belgium) assay was used to detect the cytotoxicity of the compounds after 24 h and 96 h incubation. In brief, cells were harvested from culture flasks and the following cell numbers (each in 100 µL) were seeded into 96-well culture plates (CytoOne, tissue culture treated, Starlab, Hamburg, Germany) for 24 h incubation: 1 × 10^4 (CH1/PA-1), 1 × 10^4 (SW480) and 1.5 × 10^4 (A549) cells per well; and for 96 h incubation: 1 × 10^3 (CH1/PA-1), 2 × 10^3 (SW480) and 3 × 10^3 (A549) cells per well. After 24 h, cells resuming their exponential growth rate were treated with test compounds at nine concentrations obtained by serial two-fold dilution. Stock solutions were prepared in DMSO (20 mM or 40 mM) and diluted in supplemented MEM. An amount of 100 µL of each concentration was added to the plates in triplicates and cells were exposed for 24 or 96 h. Afterward, the medium was replaced with 100 µL of MTT solution (5 mg/mL) in phosphate-buffered saline (PBS, Sigma-Aldrich), diluted 1:7 in RPMI 1640 medium (supplemented with 4 mM L-glutamine and 10% heat-inactivated FBS). Upon cell-viability-dependent conversion of the yellow, water-soluble tetrazolium salt into purple formazan products for 4 h, the crystals were dissolved in 150 µL DMSO. The absorbance of the resulting solutions, which is directly proportional to the number of viable cells, was measured at 550 nm (and at 690 nm as a reference) with a microplate reader (ELx808, BioTek, Winoosky, VT, USA) and Gen5TM 3.08 software (BioTek). Blank-corrected optical densities were subjected to graphical evaluation and interpolation of IC50 values. At least three biologically and technically independent experiments were performed.

[4] = tested on: SW480 colon carcinoma cells; assay: MTT assay (cytotoxicity); format: cell-based, human
Description: as §1, §2

[5] = tested on: CH1/PA-1 ovarian teratocarcinoma cells; assay: MTT assay (cytotoxicity); format: cell-based, human; conditions: CH1/PA-1, MTT
Description: as §1, §2

[6] = tested on: SW480 colon carcinoma cells; conditions: SW480, MTT, 96 h exposure; cited from earlier work
pUC19 plasmid [7] = tested on: pUC19 plasmid; parameters: method as in PMID 34115482; conditions: cited from earlier work
[8] = tested on: A549 non-small cell lung cancer cells; conditions: A549, MTT, 96 h exposure; cited from earlier work
NQO1 (SW480 cells) = biological target: T1, NQO1 (SW480 cells) (Homo sapiens, UniProt P15559); assay: NQO1 activity assay in cell extracts after treatment; format: cell-based; conditions: SW480, 24 h treatment
T1 construct: impact on NQO1 activity in SW480 (left panel) and CH1/PA-1 (right panel) cell extracts after treatment; endogenous in cells; host or cells: SW480 colon carcinoma cells (ATCC)
T1 sequence (P15559 whole entry): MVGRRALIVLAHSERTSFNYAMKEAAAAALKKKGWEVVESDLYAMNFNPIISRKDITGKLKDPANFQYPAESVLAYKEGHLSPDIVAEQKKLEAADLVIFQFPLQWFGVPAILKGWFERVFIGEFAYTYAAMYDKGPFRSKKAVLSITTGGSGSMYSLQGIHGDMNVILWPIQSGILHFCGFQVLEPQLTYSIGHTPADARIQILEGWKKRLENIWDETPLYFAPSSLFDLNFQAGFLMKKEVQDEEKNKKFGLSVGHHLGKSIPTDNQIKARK
Description: To determine NQO1 activity, SW480 and CH1/PA-1 cells were seeded into 6-well plates in densities of 2 × 10^5 cells/well in 2 mL supplemented MEM. […] The test substances were dissolved in DMSO/medium. To exclude that assay validity was compromised by the use of DMSO, cells treated with DMSO alone (at concentrations corresponding to those in substance solutions) were measured in parallel. After 24 h drug exposure, the medium was aspirated, and the cells were gently washed twice with PBS. The further steps were performed following the manual instructions of the NQO1 activity assay kit (ab184867, abcam, Cambridge, UK). Protease inhibitor phenylmethylsulfonyl fluoride (PMSF, Merck, Darmstadt, Germany) and phosphatase inhibitor PhosSTOP^TM (Roche, Basel, Switzerland) were applied. For determining the protein concentration, the Micro BCA^TM protein assay (prod # 23235, Thermo Scientific) kit was used. For NQO1 activity determination, 100 µg/mL of total protein was loaded. The development of yellow color was monitored for 5 min in 20-sec intervals with a microplate reader (BioTek ELx808) at 450 nm. The measured data were evaluated according to the instructions of the NQO1 activity assay kit: “NQO1 activity was calculated by subtracting the OD value with Inhibitor from the one without Inhibitor. The activity is expressed as the change in absorbance per minute per amount of sample loaded into the well” [30]. Data are expressed as rates of increase of mean absorbance ± SDs from three independent experiments.

[9] = 0.1 µM and 1 µM, compared to untreated control

Row | SMILES | Influence on pUC19 (in words) (pUC19 plasmid [1]) | Percentage amount of initial complex remaining ([2]; after 4 h) | IC50 ([3]; 24 h exposure) | IC50 ([3]; 96 h exposure) | IC50 ([4]; 24 h exposure) | IC50 ([4]; 96 h exposure) | IC50 ([5]; 24 h exposure) | IC50 ([5]; 96 h exposure) | IC50 [6] | Influence on pUC19 (in words) (pUC19 plasmid [7]) | IC50 [8] | IC50 ([3]; Homo sapiens, 24 h exposure) | IC50 ([4]; Homo sapiens, 24 h exposure) | IC50 ([5]; Homo sapiens, 24 h exposure) | Effect on NQO1 activity (in words) (NQO1 (SW480 cells); 10 µM) | Effect on NQO1 activity (in words) (NQO1 (SW480 cells); [9]) | Percentage amount of initial complex remaining ([2]; after 24 h) | open circular (oc) form of pUC19 (single-strand breaks) (pUC19 plasmid [1])
1 | CC1=C([O-])C([O-])(n2cccn2)c2ccccc2C1=O.Cc1c(C)c(C)c(C)c(C)c1C.[Ru+2] (stereo not shown) [Compound 6] | only a minor influence on pUC19 | less than 70% | 38 ± 21 µM | 3.4 ± 0.6 µM | 2.8 ± 1.6 µM | 0.27 ± 0.06 µM | 57 ± 16 µM | 35 ± 4 µM |  |  |  |  |  |  |  |  |  | 
2 | CC1=C(O)C(=O)c2ccccc2C1=O [L, 2-Hydroxy-3-methyl-1,4-naphthoquinone] |  |  |  |  |  |  |  |  | 116 ± 37 µM | only a minor influence on pUC19 | 210 ± 32 µM | > 400 µM | > 400 µM | > 400 µM | moderately inhibited |  |  | 
3 | CC1=C([O-])C([O-])(n2cccn2)c2ccccc2C1=O.[Ru+2].c1ccc(-c2ccccc2)cc1 (racemic) [Compound 5] | only a minor influence on pUC19 |  | 4.3 ± 1.6 µM | 1.2 ± 0.2 µM | 0.77 ± 0.24 µM | 0.072 ± 0.019 µM | 42 ± 4 µM | 30 ± 3 µM |  |  |  |  |  |  | lowered NQO1 activity tremendously | negligible effects |  | 
4 | CC1=C([O-])C([O-])(n2cccn2)c2ccccc2C1=O.Cc1ccc(C(C)C)cc1.[Ru+2] (racemic) [Compound 1] |  |  | 3.8 ± 2.6 µM |  | 0.46 ± 0.14 µM |  | 59 ± 18 µM |  | 0.094 ± 0.031 µM | only a minor influence on pUC19 | 1.2 ± 0.2 µM |  |  |  | lowered NQO1 activity tremendously | negligible effects | more than 70% | 
5 | CC1=C([O-])C([O-])(n2cccn2)c2ccccc2C1=O.Cc1ccccc1.[Ru+2] (racemic) [Compound 3] |  |  | > 200 µM | 72 ± 12 µM | 11 ± 2 µM | 2.8 ± 0.7 µM | 121 ± 18 µM | 138 ± 10 µM |  |  |  |  |  |  |  |  |  | 11.7 ± 1.6%
6 | CC1=C([O-])C([O-])(n2cccn2)c2ccccc2C1=O.[Ru+2].c1ccc2c(c1)CCC2 (racemic) [Compound 4] |  |  | 119 ± 21 µM | 9.1 ± 1.5 µM | 3.5 ± 1.6 µM | 0.52 ± 0.09 µM | 146 ± 18 µM | 88 ± 10 µM |  |  |  |  |  |  | moderate suppression of enzyme activity |  |  | 12.1 ± 1.9%
7 | CC1=C([O-])C([O-])(n2cccn2)c2ccccc2C1=O.[Ru+2].c1ccccc1 (racemic) [Compound 2] |  |  | > 200 µM | 141 ± 38 µM | 31 ± 3 µM | 9.9 ± 2.5 µM | 170 ± 23 µM | 157 ± 8 µM |  |  |  |  |  |  |  |  |  | 11.8 ± 0.9%
